US7531545B2, “2-amino-3,4-dihydro-pyrido[3,4-d]pyrimidine derivatives useful as inhibitors of β-secretase (BACE)” (Janssen Pharmaceutica, N.V., priority 2005, dated 2009)
pIC50: −log10 of the molar value.

Target: human BACE-1 (Homo sapiens, UniProt P56817)
Test: CEREP BACE Inhibition Assay
Assay type: biochemical
Conditions: recombinant enzyme; for inhibition at 1 µM / inhibition at 0.3 µM: percent inhibition of the control activity; for inhibition at 1 µM: read-out: % Inhibition @ 1.0 μM; for pIC50: read-out: IC50
Procedure: More specifically the assay, run at 50 μL in a 96 well plate, evaluated the effect of test compound on the activity of the human BACE-1 quantified by measuring the formation of Mca-S-E-V-N-L-NH2 from […], using a recombinant enzyme. The test compound, reference compound or water (control) were added to a buffer containing 0.09 M sodium acetate (pH 4.5) and 0.25 μg BACE-1. Compound interference with the fluorimetric detection method due to autofluorescence was then checked by measurements at the wavelengths defined to evaluate the enzyme activity. […] For control basal measurement, the substrate was omitted from the reaction mixture. […] The standard inhibitory reference compound was OM99-2, which was tested in each experiment at several concentrations to obtain an inhibition curve from which its IC50 value was calculated.

Chain of human BACE-1 (P56817 46-501): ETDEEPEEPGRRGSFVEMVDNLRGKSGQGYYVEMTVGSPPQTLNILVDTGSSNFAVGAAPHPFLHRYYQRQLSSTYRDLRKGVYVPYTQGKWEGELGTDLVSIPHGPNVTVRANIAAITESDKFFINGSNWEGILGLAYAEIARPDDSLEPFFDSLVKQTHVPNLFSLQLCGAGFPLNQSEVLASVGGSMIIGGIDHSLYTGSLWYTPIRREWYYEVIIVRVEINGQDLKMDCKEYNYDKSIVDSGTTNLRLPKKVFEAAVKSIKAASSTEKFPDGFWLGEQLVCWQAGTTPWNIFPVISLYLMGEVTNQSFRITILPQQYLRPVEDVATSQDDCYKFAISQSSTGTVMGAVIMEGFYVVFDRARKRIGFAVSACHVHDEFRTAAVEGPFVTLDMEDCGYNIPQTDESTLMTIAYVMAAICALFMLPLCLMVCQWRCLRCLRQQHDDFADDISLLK

Row | SMILES | inhibition at 1 µM | inhibition at 0.3 µM | pIC50
1 | COCC(=O)NC1=Nc2cnc(Oc3ccccc3)cc2CN1C(Cn1cc(C(C)(C)C)nn1)C1CCCCC1 (stereo in doubt) [Compound 247, N-{3-[2-(4-tert-Butyl-[1,2,3]triazol-1-yl)-1-(S)-cyclohexyl-ethyl]-6-phenoxy-3,4-dihydro-pyrido[3,4-d]pyrimidin-2-yl}-2-methoxy-acetamide] | 3% |  | 
2 | CN(C(=O)CC[C@@H](C1CCOCC1)N1Cc2cc(Oc3ccccc3)ncc2N=C1N)[C@H](COC(C)(C)C)C(=O)O [Compound 60] |  | 91% | 7.00
3 | COC(=O)[C@@H](COC(C)(C)C)NC(=O)CC[C@@H](C1CCCCC1)N1Cc2cc(Oc3ccccc3)ncc2N=C1N [Compound 63, 2-[4-(2-Amino-6-phenoxy-4H-pyrido[3,4-d]pyrimidin-3-yl)-4-(S)-cyclohexyl-butyryl-(R)-amino]-3-tert-butoxy-propionic acid methyl ester] |  | 94% | 6.72
4 | CN(C(=O)CC[C@@H](C1CCCCC1)N1Cc2cc(Oc3ccccc3)ncc2N=C1N)[C@@H](COC(C)(C)C)C(=O)O [Compound 66] |  | 96% | 6.59
5 | CC(C)(C)OC(=O)CC[C@@H](C1CCCCC1)N1Cc2cc(Oc3ccccc3)ncc2N=C1N [Compound 75] | 90% |  | 6.62
6 | NC1=Nc2cnc(Oc3ccccc3)cc2CN1[C@@H](CCC(=O)N(Cc1nnn[nH]1)C1CCCCC1)C1CCCCC1 [Compound 77, 4-(2-Amino-6-phenoxy-4H-pyrido[3,4-d]pyrimidin-3-yl)-4-(S)—N-dicyclohexyl-N-(1H-tetrazol-5-ylmethyl)-butyramide] |  | 78% | 6.48
7 | NC1=Nc2cnc(Oc3ccccc3)cc2CN1[C@@H](CCC(=O)N(Cc1ncc[nH]1)C1CCCCC1)C1CCCCC1 [Compound 78, 4-(2-Amino-6-phenoxy-4H-pyrido[3,4-d]pyrimidin-3-yl)-4-(S),N-dicyclohexyl-N-(1H-imidazol-2-ylmethyl)-butyramide] |  | 91% | 6.72
8 | NC1=Nc2cnc(Oc3ccccc3)cc2CN1[C@@H](CCC(=O)N(Cc1ccncc1)C1CCCCC1)C1CCCCC1 [Compound 79] |  | 88% | 6.82

More lines, now with the values ahead:

Row | inhibition at 1 µM | inhibition at 0.3 µM | pIC50 | SMILES
9 |  | 95% | 6.85 | COC(=O)[C@@H](COCc1ccccc1)NC(=O)CC[C@@H](C(C)C)N1Cc2cc(Oc3ccccc3)ncc2N=C1N [Compound 53]
10 |  | 97% | 6.77 | CC(C)[C@H](CCC(=O)N[C@H](COCc1ccccc1)C(=O)O)N1Cc2cc(Oc3ccccc3)ncc2N=C1N [Compound 54]
11 |  | 93% | 7.12 | COC(=O)[C@H](COCc1ccccc1)N(C)C(=O)CC[C@@H](C1CCOCC1)N1Cc2cc(Oc3ccccc3)ncc2N=C1N [Compound 56]
12 |  | 57% | 6.57 | CN(C(=O)CC[C@@H](C1CCOCC1)N1Cc2cc(Oc3ccccc3)ncc2N=C1N)[C@@H](COCc1ccccc1)C(=O)O [Compound 58]
13 |  | 81% | 6.62 | COC(=O)[C@H](COC(C)(C)C)NC(=O)CC[C@@H](C1CCCCC1)N1Cc2cc(Oc3ccccc3)ncc2N=C1N [Compound 61]
14 |  | 65% | 6.60 | CC(C)(C)OC[C@H](NC(=O)CC[C@@H](C1CCCCC1)N1Cc2cc(Oc3ccccc3)ncc2N=C1N)C(=O)O [Compound 62]
15 |  | 91% | 6.96 | COC(=O)[C@H](COC(C)(C)C)N(C)C(=O)CC[C@@H](C1CCCCC1)N1Cc2cc(Oc3ccccc3)ncc2N=C1N [Compound 65]
16 |  | 57% | 6.47 | COC(=O)[C@H](COC(C)(C)C)NC(=O)CC[C@@H](C(C)C)N1Cc2cc(Oc3ccccc3)ncc2N=C1N [Compound 69]
17 |  | 66% | 6.59 | CC(C)[C@H](CCC(=O)N[C@@H](COC(C)(C)C)C(=O)O)N1Cc2cc(Oc3ccccc3)ncc2N=C1N [Compound 70]
